# Measured values from PMC7126937 (Bioorganic & Medicinal Chemistry, 2014).
# System: influenza virus A/California/7/09 (H1N1)pdm09
# Conditions: cited from earlier work
row,SMILES,ED50 (50% effective concentration)
1,NC(=O)c1ncn([C@@H]2O[C@H](CO)[C@@H](O)[C@H]2O)n1 [Ribavirin],24.6 µM

# System: influenza virus A/California/7/09 (H1N1)pdm09
# Format: cell-based, influenza virus A/California/07/09 (H1N1)pdm09
# Conditions: not given
row,SMILES,"Antiviral (virus-inhibiting) activity, in words"
1,"CC1(C)[C@@H]2CC[C@@]1(C)/C(=N/c1ccc(Cc3ccc(N)cc3)cc1)C2 [Compound 5f, (E)-4-(4-aminobenzyl)-N-((1R,2R,4R)-1,7,7-trimethylbicyclo[2.2.1]heptan-2-ylidene)aniline]",did not exhibit high antiviral activity
2,"CC1(C)C2CC[C@@]1(C)C(=O)C2 [Compound 1, (1R)-(+)-camphor, reference compound]",does not possess a virus-inhibiting activity
3,"CC1(C)[C@@H]2CC[C@@]1(C)/C(=N/c1ccc(Cc3ccc(/N=C4\C[C@H]5CC[C@]4(C)C5(C)C)cc3)cc1)C2 [Compound 2f, (E)-N-((1R,2R,4R)-1,7,7-trimethylbicyclo[2.2.1]heptan-2-ylidene)-4-(4-((E)-((1R,2R,4R)-1,7,7-trimethylbicyclo[2.2.1]heptan-2-ylidene)amino)benzyl)aniline]",did not exhibit high antiviral activity
4,"CC1(C)[C@@H]2CC[C@@]1(C)/C(=N/CCCCCCCCCCCC/N=C1\C[C@H]3CC[C@]1(C)C3(C)C)C2 [Compound 2e, N^1E,N^12E-N^1,N^12-bis((1R,2R,4R)-1,7,7-trimethylbicyclo[2.2.1]heptan-2-ylidene)dodecane-1,12-diamine]",highest antiviral activity
5,"CC1(C)[C@@H]2CC[C@@]1(C)/C(=N/CCCCCCC/N=C1\C[C@H]3CC[C@]1(C)C3(C)C)C2 [Compound 2c, N^1E,N^7E-N^1,N^7-bis((1R,2R,4R)-1,7,7-trimethylbicyclo[2.2.1]heptan-2-ylidene)heptane-1,7-diamine]",highest antiviral activity
6,"CC1(C)[C@@H]2CC[C@@]1(C)[C@H](Nc1ccc(Oc3ccc(N[C@@H]4C[C@H]5CC[C@]4(C)C5(C)C)cc3)cc1)C2 [Compound 3g, (1R,2R,4R)-1,7,7-trimethyl-N-(4-(4-((1R,2R,4R)-1,7,7-trimethylbicyclo[2.2.1]heptan-2-ylamino)phenoxy)phenyl)bicyclo[2.2.1]heptan-2-amine]",did not exhibit high antiviral activity
7,"CC1(C)[C@@H]2CC[C@@]1(C)/C(=N/CCC/N=C1\C[C@H]3CC[C@]1(C)C3(C)C)C2 [Compound 2a, N^1E,N^3E-N^1,N^3-bis((1R,2R,4R)-1,7,7-trimethylbicyclo[2.2.1]heptan-2-ylidene)propane-1,3-diamine]",highest antiviral activity
8,"CC1(C)[C@@H]2CC[C@@]1(C)/C(=N/CCCCCC/N=C1\C[C@H]3CC[C@]1(C)C3(C)C)C2 [Compound 2b, N^1E,N^6E-N^1,N^6-bis((1R,2R,4R)-1,7,7-trimethylbicyclo[2.2.1]heptan-2-ylidene)hexane-1,6-diamine]",highest antiviral activity
